Results taken from patent publication US5690904A, “Diagnostic radiopharmaceutical compounds (That)” (priority 1995, dated 1997).

Key:
[1] = Biodistribution of 99mTc labelled complexes in rats (Tc brain bioassay, Example 64, Table I); type: in vivo, Female Sprague-Dawley rats; conditions: rat, i.v. tail vein
Procedure: Distribution of the ^99m Tc labelled compounds was evaluated in rats. Female Sprague-Dawley rats weighing 140 to 220 g (average 170 g) were anaesthetised with sodium pentobarbital and were injected in a tail vein with 0.05 to 10mCi of the ^99m Tc labelled complex in a volume of 0.2 to 0.5 ml. At least two rats were injected for each time point.
The animals were sacrificed at 5 and 30 minutes post injection and selected organs were removed; the tails were discarded to avoid interference from the injection site. The radioactivity in each organ was measured at a standard geometry with a […] sodium iodide scintillation counter adjusted for the 140 KeV emission of ^99m Tc. The organs were also weighed to one hundredth of a gram and the activity was calculated as a percent of administered dose per gram. The important determinations are the amount of activity in the brain and the brain:blood ratio.

[2] = Electrophoresis of 99mTc complexes (charge); type: physicochemical
Text: After labelling, and if required, the resultant ^99m Tc chelate complexes can be purified by passing through a C-18 Sep Pak column.

[3] = technetium complex, monkey; cited from earlier work
[4] = technetium complex; cited from earlier work
[5] = 0.05M NaH2PO4, pH 4.5, 300 volts, 30 min
[6] = 0.1M NaH2PO4, pH 6.8, 200 volts, 30 min
[7] = 0.1M NaH2PO4, pH 6.8, 250 volts, 25 min

SMILES | Brain % dose ([1]; 5 min post injection) [% dose] | Brain:blood ([1]; 5 min post injection) | Heart % dose ([1]; 5 min post injection) [% dose] | Heart:blood ([1]; 5 min post injection) | Brain % dose ([1]; 30 min post injection) [% dose] | Brain:blood ([1]; 30 min post injection) | Heart % dose ([1]; 30 min post injection) [% dose] | Heart:blood ([1]; 30 min post injection) | further results
CCCC[SH]1C(C)(C)C(=O)[N]2CC[N]3c4ccccc4[S][Tc]231=[O] (stereo not shown) [Example T714, ^99m Tc complex of N[2-(((2-methyl-2-butylthio)propionyl)amino)ethyl]-2-amino-thiophenol] | 1.43 | 3.11 | 0.82 | 3.67 | 0.50 | 1.66 | 0.27 | 1.79 | –
CC1(C)C(=O)[N]2CC[N]3c4ccccc4[S][Tc]23(=[O])[SH]1CCC#N (stereo not shown) [Example T731, ^99m Tc complex of N[2-(((2-methyl-2-(2-cyanoethylthio))propionyl)amino)ethyl]-2-(4-methoxybenzylthio)aniline] | 1.49 | 0.42 | 1.01 | 0.68 | 0.60 | 0.21 | 0.58 | 0.42 | Electrophoresis (charge) [2, 5]: neutral
CC1(C)C(=O)[N]2CC[N]3c4ccccc4[S][Tc]23(=[O])[SH]1CCCN (stereo not shown) [Example T728, ^99m Tc complex of N[2-(((2-methyl-2-(3-aminopropylthio))propionyl)amino)ethyl]-2-(4-methoxybenzylthio) aniline] | 0.03 | 0.04 | 1.68 | 4.36 | 0.03 | 0.05 | 0.74 | 2.11 | –
CC1(C)C(=O)[N]2CC[N]3c4ccccc4[S][Tc]23(=[O])[SH]1CCO (stereo not shown) [Example T726, ^99m Tc complex of N[2-(((2-methyl-2-(2-hydroxyethylthio))propionyl)amino)ethyl]-2-(4-methoxybenzylthio) aniline] | 1.11 | 1.82 | 0.73 | 3.22 | 0.32 | 0.93 | 0.28 | 2.08 | Electrophoresis (charge) [2, 6]: neutral
COC(=O)C[SH]1C(C)(C)C(=O)[N]2CC[N]3c4ccccc4[S][Tc]231=[O] (stereo not shown) [Example T727, ^99m Tc complex of N[2-(((2-methyl-2-(methoxycarbonylmethylenethio))propionyl)amino)ethyl]-2-(4-methoxybenzylthio)aniline] | 0.09 | 0.09 | 0.45 | 1.26 | 0.07 | 0.06 | 0.18 | 0.42 | Electrophoresis (charge) ([2]; 0.05M NaH2PO4, pH 4.5, 300 volts, 35 min): neutral
CCC[SH]1C(C)(C)C(=O)[N]2CC[N]3c4ccccc4[S][Tc]231=[O] (stereo not shown) [Example T713, ^99m Tc complex of N[2-(((2-methyl-2-propylthio)propionyl)amino)ethyl]-2-amino-thiophenol] | 1.55 | 4.34 | 0.59 | 3.68 | 0.46 | 1.83 | 0.19 | 1.84 | Electrophoresis (charge) [2, 7]: neutral
CC[SH]1C(C)(C)C(=O)[N]2CC[N]3c4ccccc4[S][Tc]231=[O] (stereo not shown) [Example T715, ^99m Tc complex of N[2-(((2-methyl-2-ethylthio)propionyl)amino)ethyl]-2-amino-thioplhenol] | 2.55 | 5.19 | 0.84 | 3.73 | 0.51 | 1.36 | 0.23 | 1.40 | –
CCOC(=O)[C@H](CS)NCCN[C@@H](CS)C(=O)OCC [ECD] | – | – | – | – | – | – | – | – | brain retention [3]: retention; brain uptake [3]: good
C=CC[SH]1C(C)(C)C(=O)[N]2CC[N]3c4ccccc4[S][Tc]231=[O] (stereo not shown) [Example T721, ^99m Tc complex of N[2-(((-methyl-2-allylthio)propionyl)amino)ethyl]-2-aminothiopenol] | 1.82 | – | 0.75 | – | 0.30 | – | 0.36 | – | Electrophoresis (charge) [2, 6]: neutral; Brain:blood ([1]; 5 min post injection, 5 min): 1.23; Heart:blood ([1]; 5 min post injection, 5 min): 1.16; Brain:blood ([1]; 30 min post injection, 30 min): 0.21; Heart:blood ([1]; 30 min post injection, 30 min): 0.49
CC1(C)C(=O)[N]2CC[N]3c4ccccc4[S][Tc]23(=[O])[SH]1CCCl (stereo not shown) [Example T730, ^99m Tc complex of N[2-(((2-methyl-2-(2-chloroethylthio))propionyl)amino)ethyl]-2-(4-methoxybenzylthio)aniline] | 2.45 | 6.1 | 0.71 | 3.97 | 0.73 | 1.8 | 0.29 | 1.53 | Electrophoresis (charge) [2, 5]: neutral
CCC[SH]1c2ccccc2[N]2CC[N]3C(=O)C(C)(C)[S][Tc]321=[O] (stereo not shown) [Example T717, ^99m Tc N[2-(((2-methyl-2-mercapto)propionyl)amino)ethyl]-2-propylthioaniline] | 1.27 | 1.21 | 0.98 | 1.88 | 1.24 | 1.23 | 0.48 | 1.00 | Electrophoresis (charge) [2, 6]: neutral
CC(C)(S)CNCc1ccccc1NCC(C)(C)S [U-BAT] | – | – | – | – | – | – | – | – | brain uptake / crossing of blood-brain barrier [4]: exhibit brain uptake; retention of brain activity [4]: no retention
C[SH]1c2ccccc2[N]2CC(=O)[N]3CC(C)(C)[S][Tc]321=[O] (stereo not shown) [Example T729, ^99m Tc complex of N[2-oxo-2(N^1 ((2-methyl-2-mercapto)propyl)amino)ethyl]-2-methylthioaniline] | 0.87 | 0.19 | 0.70 | 0.34 | 0.21 | 0.08 | 0.28 | 0.36 | Electrophoresis (charge) [2, 5]: neutral
CC(C)(S)CNCCNCC(C)(C)S [BAT] | – | – | – | – | – | – | – | – | brain uptake / crossing of blood-brain barrier [4]: can cross the blood-brain barrier (BBB); retention of brain activity [4]: fails to show retention
C=CC[SH]1C(C)(C)C(=O)[N]2CC[N]3c4ccccc4[S][Tc]231=[O] (stereo not shown) [Example T719, ^99m Tc complex of N[2-(((2-methyl-2-allylthio)propionyl)amino)ethyl]-2-(4-methoxybenzylthio)aniline] | 1.86 | – | 0.78 | – | 0.48 | – | 0.40 | – | Brain:blood ([1]; 5 min post injection, 5 min): 1.32; Heart:blood ([1]; 5 min post injection, 5 min): 1.36; Brain:blood ([1]; 30 min post injection, 30 min): 0.26; Heart:blood ([1]; 30 min post injection, 30 min): 0.55
C#CC[SH]1C(C)(C)C(=O)[N]2CC[N]3c4ccccc4[S][Tc]231=[O] (stereo not shown) [Example T722, ^99m Tc complex of N[2-(((2-methyl-2-(2-propynylthio))propionyl)amino)ethyl]-2-(4-methoxybenzylthio)aniline] | 1.58 | 0.57 | 0.74 | 0.67 | 0.68 | 0.31 | 0.48 | 0.52 | –
C[SH]1C(C)(C)C(=O)[N]2CC[N]3c4ccccc4[S][Tc]231=[O] (stereo not shown) [Example T711] | 2.33 | 4.24 | 0.88 | 3.38 | 0.47 | 1.54 | 0.23 | 1.51 | Electrophoresis (charge) [2, 7]: neutral
C[SH]1c2ccccc2[N]2CC[N]3C(=O)C(C)(C)[S][Tc]321=[O] (stereo not shown) [Example T712, ^99m Tc complex of N[2-(((methyl-2-mercapto)propionyl)amino)ethyl]-2-methylthio aniline] | 1.69 | 1.04 | 0.61 | 1.07 | 1.73 | 1.13 | 0.53 | 0.74 | Electrophoresis (charge) ([2]; 0.05M NaH2PO4, pH 4.5, 3000 volts, 30 min): neutral
